Test results published in publication PMC6764291 (Frontiers in Oncology, 2019).
Entries after “also recorded” stand apart in the source; their conditions may differ.

Key:
UM-SCC-74B spheroids = test: 3D tumor spheroid growth, UM-SCC-74B; format: cell-based, human; conditions: for Maximum time to termination / Median time to termination: volume >600 μm^3; for CDI: CDI = AB/(A*B)
Experimental: (§1) Cells were irradiated using ^137Cs gamma-ray photons at a dose-rate of ~1 Gy/min (Best Theratronics Gammacell® 40Exactor, Springfield, USA).
For liquid overlay 3D spheroid formation, 96-well plates were coated with 0.15% agarose dissolved in PBS with 1% penicillin/streptomycin. 1000 UM-SCC-74B cells/well were seeded and incubated at 37°C for 3 days prior to treatment. […] Half of the medium was replaced every 48 h for the first 10 days, thereafter every 4 days. […] Images were obtained every 2–4 days using a Canon EOS 700D camera mounted on an inverted Nikon Diaphot-TMD microscope. […] Each spheroid was normalized to its own starting volume at the start of treatment (Day 0, growth ratio = 1). Spheroids exceeding a volume of 600 μm^3 were excluded (i.e., terminated) from further analyses as 600 μm^3 is the maximum size possible to obtain in these settings with uncompromised growth conditions.
GraphPad Prism version 6.07 (GraphPad Software, San Diego, USA) was used for data processing and analysis. p-values were determined using unpaired student's t-test for comparison between two groups or one-way ANOVA followed by Tukey's multiple comparisons test, with p < 0.05 (^*), p < 0.01 (^**), p < 0.001 (^***), and p < 0.0001 (^****). For XTT assays cell viability was normalized for irradiated and unirradiated samples separately. […] CDI ≤ 0.7 equaled significant synergistic effect, CDI ≤ 1 equaled additive effect and CDI > 1 equaled antagonistic effect ([29]).

wt p53 tumors = conditions: mice, PM2 combined with radiotherapy; cited from earlier work
p53^−/− tumors = conditions: mice, PM2 combined with radiotherapy; cited from earlier work
UM-SCC-74B = test: Cell cycle analysis by flow cytometry, UM-SCC-74B; format: cell-based, human; conditions: for G2/M-phase / S-phase: viable cells, DAPI
Experimental: as §1
Cells were collected and fixed in 70% ethanol at 6, 12, 24, 48, 72, and 96 h post-irradiation and stored at −20°C. For cell cycle analyses, 6, 12, 24, and 48 h samples were rehydrated and washed twice with PBS and stained with DAPI (Sigma Aldrich Sweden, Stockholm, Sweden) using 1 μg/ml for 30 min. 24, 48, 72, and 96 h samples were stained with caspase-3 and Noxa (ab13847 (1:500) and ab13654 (1:1,000), AbCam, Cambridge, UK) overnight at 4°C, followed by incubation with fluorescent labeled secondary antibodies for 90 min (ab 1:400) at room temperature. Analyses were performed using a BD LSR Fortessa flow cytometer (Becton Dickinson Biosciences, San Jose, USA). Data analyses for cleaved caspase-3 and Noxa were performed with BD FACSDiVa (Becton Dickinson Biosciences, San Jose, USA), while cell cycle analyses of exclusively viable cells were performed using FlowJo (Becton, Dickinson Biosciences, San Jose, USA). Coefficient of variation (CV) values, were below seven for all samples.

[1] = Combination 2 Gy + 20 μM PM2, 6 h
[2] = Combination 2 Gy + 20 μM PM2, 12 h
[3] = Combination 2 Gy + 20 μM PM2, 24 h
[4] = Combination 2 Gy + 20 μM PM2, 48 h

With CC(=O)N[C@H](C(=O)N[C@@H](CO)C(=O)N[C@@H](Cc1ccccc1)C(=O)N[C@]1(C)CCCCCCC=CCCC[C@@](C)(C(N)=O)NC(=O)[C@H](CC(C)C)NC(=O)[C@H](CC(C)C)NC(=O)[C@H](C)NC(=O)[C@H](Cc2c[nH]c3ccccc23)NC(=O)[C@H](Cc2ccc(O)cc2)NC(=O)[C@H](CCC(=O)O)NC1=O)[C@@H](C)O [PM2] the “Maximum time to termination” value (UM-SCC-74B spheroids; 2 × 2 Gy and 3 × PM2) was 25 days, the “Median time to termination” value (UM-SCC-74B spheroids; 2 × 2 Gy and 3 × PM2) was 21 days and the spheroid response (UM-SCC-74B spheroids; 2 × 2 Gy/3 × 20 μM PM2, day 14) was “continuous growth inhibition throughout day 14”. For the same compound, the “spheroid size of untreated controls” value (UM-SCC-74B spheroids; 3 × 2 Gy + single dose of PM2, day 14) was 75%, the “increase of median time to termination compared to untreated controls” value (UM-SCC-74B spheroids; 3 × 2 Gy and 3 × PM2) was 2 fold and the “Maximum time to termination” value (UM-SCC-74B spheroids; 3 × 2 Gy and 3 × PM2) was 35 days. The “Median time to termination” value (UM-SCC-74B spheroids; 3 × 2 Gy and 3 × PM2) was 28 days, the spheroid response (UM-SCC-74B spheroids; 3 × 2 Gy/3 × 20 μM PM2, day 14) was “continuous growth inhibition throughout day 14” and the “spheroid size of treated spheroids as % of untreated controls” value (UM-SCC-74B spheroids; 5 × 20 μM PM2 at 48 h intervals, day 14, no radiation) was 57%. The “spheroid size of untreated controls” value (UM-SCC-74B spheroids; 5 × 2 Gy + single dose of PM2, day 14) was 55%, the “Maximum time to termination” value (UM-SCC-74B spheroids; 5 × 2 Gy and 1 × PM2) was 25 days and the “Median time to termination” value (UM-SCC-74B spheroids; 5 × 2 Gy and 1 × PM2) was 21 days. For the same compound, the “Maximum time to termination” value (UM-SCC-74B spheroids; 5 × 2 Gy and 5 × PM2) was “Not reached”, the “Median time to termination” value (UM-SCC-74B spheroids; 5 × 2 Gy and 5 × PM2) was “Not reached” and the spheroid response (UM-SCC-74B spheroids; 5 × 2 Gy/5 × 20 μM PM2) was “spheroid disintegration and cell death”. For the same compound, the “Maximum time to termination” value (UM-SCC-74B spheroids; 5 × PM2, no radiation) was 21 days, the “Median time to termination” value (UM-SCC-74B spheroids; 5 × PM2, no radiation) was 21 days and the CDI (UM-SCC-74B spheroids; Day 10, 1 × 20 μM PM2 + 1 × 2 Gy) was 0.705. The CDI (UM-SCC-74B spheroids; Day 10, 1 × 20 μM PM2 + 2 × 2 Gy) was 0.507, the CDI (UM-SCC-74B spheroids; Day 10, 1 × 20 μM PM2 + 3 × 2 Gy) was 0.493 and the CDI (UM-SCC-74B spheroids; Day 10, 1 × 20 μM PM2 + 5 × 2 Gy) was 0.472. The CDI (UM-SCC-74B spheroids; Day 10, 2 × 20 μM PM2 + 2 × 2 Gy) was 0.209, the CDI (UM-SCC-74B spheroids; Day 10, 3 × 20 μM PM2 + 1 × 2 Gy) was 0.412 and the CDI (UM-SCC-74B spheroids; Day 10, 3 × 20 μM PM2 + 2 × 2 Gy) was 0.122. For the same compound, the CDI (UM-SCC-74B spheroids; Day 10, 3 × 20 μM PM2 + 3 × 2 Gy) was 0.244, the CDI (UM-SCC-74B spheroids; Day 10, 5 × 20 μM PM2 + 1 × 2 Gy) was 0.398 and the CDI (UM-SCC-74B spheroids; Day 10, 5 × 20 μM PM2 + 5 × 2 Gy) was 0.201. The CDI (UM-SCC-74B spheroids; Day 14, 1 × 20 μM PM2 + 1 × 2 Gy) was 1.03, the CDI (UM-SCC-74B spheroids; Day 14, 1 × 20 μM PM2 + 2 × 2 Gy) was 0.93 and the CDI (UM-SCC-74B spheroids; Day 14, 1 × 20 μM PM2 + 3 × 2 Gy) was 0.821. For the same compound, the CDI (UM-SCC-74B spheroids; Day 14, 1 × 20 μM PM2 + 5 × 2 Gy) was 0.815, the CDI (UM-SCC-74B spheroids; Day 14, 2 × 20 μM PM2 + 2 × 2 Gy) was 0.51 and the CDI (UM-SCC-74B spheroids; Day 14, 3 × 20 μM PM2 + 1 × 2 Gy) was 0.944. The CDI (UM-SCC-74B spheroids; Day 14, 3 × 20 μM PM2 + 2 × 2 Gy) was 0.333, the CDI (UM-SCC-74B spheroids; Day 14, 3 × 20 μM PM2 + 3 × 2 Gy) was 0.182 and the CDI (UM-SCC-74B spheroids; Day 14, 5 × 20 μM PM2 + 1 × 2 Gy) was 0.568. For the same compound, the CDI (UM-SCC-74B spheroids; Day 14, 5 × 20 μM PM2 + 5 × 2 Gy) was 0.023, the “effect on proliferation rate of spheroids” value (UM-SCC-74B spheroids; all combination treatments of PM2 and EBRT, prior to day 14) was “synergistic inhibitory effects” and the “spheroid response (abstract)” value (UM-SCC-74B spheroids; combination of PM2 and EBRT) was “growth inhibition and complete spheroid disintegration”. For the same compound, the spheroid disintegration (UM-SCC-74B spheroids; five repeated doses of both PM2 (20 μM) and 2 Gy) was 100%, the spheroid growth inhibition (UM-SCC-74B spheroids; repeated PM2 doses at 48 h intervals, no radiation) was “did inhibit growth in a dose-dependent manner” and the spheroid growth inhibition (UM-SCC-74B spheroids; single 20 μM PM2, 48 h incubation, no radiation) was “failed to impair UM-SCC-74B spheroid growth”. For the same compound, the spheroid growth inhibition (UM-SCC-74B spheroids; single dose of PM2 with EBRT) was “greater inhibitory effects than either treatment alone”, the spheroid growth inhibition (UM-SCC-74B spheroids; two repeated doses of each of PM2 and EBRT (data not shown)) was “growth inhibition surpassing the standard 14-day assay” and the “prolongation of median survival” value (wt p53 tumors) was 50%. The “effects on p53^−/− tumors” value (p53^−/− tumors) was “negligible”, the G2/M-phase (UM-SCC-74B; 20 μM PM2 alone, 6 h) was 19.7% and the S-phase (UM-SCC-74B; 20 μM PM2 alone, 6 h) was 41.6%. It also gave a G2/M-phase (UM-SCC-74B; 20 μM PM2 alone, 24 h) of 16.7%, a S-phase (UM-SCC-74B; 20 μM PM2 alone, 24 h) of 12.9% and a G2/M-phase (UM-SCC-74B; 20 μM PM2 alone, 48 h) of 10.8%. For the same compound, the S-phase (UM-SCC-74B; 20 μM PM2 alone, 48 h) was 17.4%, the “S-phase reduction / depletion” value (UM-SCC-74B; 2 Gy + 20 μM PM2) was “S-phase reduction occurred as early as 12 h post-treatment; also recorded: S-phase depletion at 24 h post-treatment” and the G2/M-phase (UM-SCC-74B; [1]) was 37.9%. The S-phase (UM-SCC-74B; [1]) was 42.9%, the G2/M-phase (UM-SCC-74B; [2]) was 39.4% and the S-phase (UM-SCC-74B; [2]) was 7.31%. It also gave a G2/M-phase (UM-SCC-74B; [3]) of 23.8%, a S-phase (UM-SCC-74B; [3]) of 2.89% and a G2/M-phase (UM-SCC-74B; [4]) of 20.6%. The S-phase (UM-SCC-74B; [4]) was 5.37%.
